Experimental data published in ChEMBL document CHEMBL4373717, “Coumarin-containing hybrids and their anticancer activities” (Eur J Med Chem, 2019).
Values after ≈ are worked out from the molar mass of the structure shown. Values belong to the compound of their own block, whether it stands above or below them.

Legend:
[1] = system: HeLa; assay: Antiproliferative activity against human HeLa cells by MTT assay; format: functional, cell-based
[2] = system: HepG2; assay: Cytotoxicity against human HepG2 cells assessed as reduction in cell viability; format: functional, cell-based
[3] = system: DLD-1; assay: Cytotoxicity against human DLD1 cells assessed as reduction in cell viability; format: functional, cell-based
[4] = system: DU-145; assay: Cytotoxicity against human DU145 cells assessed as reduction in cell viability by SRB assay; format: functional, cell-based
[5] = system: HepG2; assay: Cytotoxicity against human HepG2 cells assessed as reduction in cell viability by SRB assay; format: functional, cell-based
[6] = Cytotoxicity against human MCF7/DX cells assessed as reduction in cell viability by SRB assay; format: functional, cell-based
[7] = system: A549; assay: Cytotoxicity against human A549 cells assessed as reduction in cell viability by SRB assay; format: functional, cell-based
[8] = system: SK-OV-3; assay: Cytotoxicity against human SKOV3 cells assessed as reduction in cell viability by SRB assay; format: functional, cell-based
[9] = system: MCF7; assay: Cytotoxicity against human MCF7 cells assessed as reduction in cell viability by SRB assay; format: functional, cell-based
[10] = system: HeLa; assay: Cytotoxicity against human HeLa cells assessed as reduction in cell viability by SRB assay; format: functional, cell-based
[11] = system: BHK-21; assay: Cytotoxicity against BHK21 cells assessed as reduction in cell viability after 48 hrs by SRB assay; format: cell-based; conditions: Mesocricetus auratus, BHK-21, 48 h
[12] = system: NCI-H157; assay: Cytotoxicity against human NCI-H157 cells assessed as reduction in cell viability after 48 hrs by SRB assay; format: functional, cell-based; conditions: NCI-H157, 48 h
[13] = system: K562; assay: Anticancer activity against human K562 cells by MTT assay; format: functional, cell-based
[14] = system: MDA-MB-231; assay: Anticancer activity against human MDA-MB-231 cells by MTT assay; format: functional, cell-based
[15] = system: HeLa; assay: Anticancer activity against human HeLa cells by MTT assay; format: functional, cell-based
[16] = system: A549; assay: Anticancer activity against human A549 cells by MTT assay; format: functional, cell-based

IC50 [1]: 0.0091 to 0.569 µM
Structure (SMILES): COC(=O)c1sc(N/N=C(\C)c2cc3cc(Cl)ccc3oc2=O)nc1C

IC50 [1]: 0.0091 to 0.569 µM
Structure (SMILES): CCOC(=O)c1sc(N/N=C(\C)c2cc3ccccc3oc2=O)nc1C

Structure (SMILES): COc1ccc(/C(C)=N/Nc2ncc(C(=O)c3cc4ccccc4oc3=O)s2)cc1
EC50 [2]: 3.7 to 9.54 µg/mL (≈ 8.82 to 22.7 µM)
EC50 [3]: 3.7 to 9.54 µg/mL (≈ 8.82 to 22.7 µM)

Structure (SMILES): Cc1cc(=O)oc2cc(OCCOCCN3C(=O)/C(=N\O)c4cc(F)ccc43)ccc12
IC50 [4]: 10.3 to 50 µM
IC50 [5]: 10.3 to 50 µM
IC50 [6]: 10.3 to 50 µM
IC50 [7]: 10.3 to 50 µM
IC50 [8]: 10.3 to 50 µM
IC50 [9]: 10.3 to 50 µM
IC50 [10]: 10.3 to 50 µM

Structure (SMILES): Cc1cc(=O)oc2cc(OCCOCCN3C(=O)C(=O)c4ccccc43)ccc12
IC50 [4]: 10.3 to 50 µM
IC50 [5]: 10.3 to 50 µM
IC50 [6]: 10.3 to 50 µM
IC50 [7]: 10.3 to 50 µM
IC50 [8]: 10.3 to 50 µM
IC50 [9]: 10.3 to 50 µM
IC50 [10]: 10.3 to 50 µM

IC50 [1]: 0.0091 to 0.569 µM
Structure (SMILES): COC(=O)c1sc(N/N=C(\C)c2cc3cc(Br)ccc3oc2=O)nc1C

Structure (SMILES): CC[C@]1(O)C[C@H]2CN(CCc3c([nH]c4ccccc34)[C@@](C(=O)OC)(c3cc4c(cc3OC)N(C=O)[C@H]3[C@@](O)(C(=O)OC)[C@H](OC(C)=O)[C@]5(CC)C=CCN6CC[C@]43[C@@H]65)C2)C1 [VINCRISTINE]
IC50 [11]: 1.08 µM
IC50 [12]: 1.03 µM

Structure (SMILES): COc1cc([C@@H]2c3cc4c(cc3[C@@H](O[C@@H]3O[C@@H]5CO[C@@H](C)O[C@H]5[C@H](O)[C@H]3O)[C@H]3COC(=O)[C@H]23)OCO4)cc(OC)c1O [ETOPOSIDE]
IC50 [6]: > 50 µM
IC50 [7]: > 50 µM
IC50 [10]: > 50 µM

Structure (SMILES): C=CCNc1ncc(C(=O)c2cc3ccccc3oc2=O)s1
IC50 [2]: 5.66 to 100 µg/mL (≈ 18.1 to 320 µM)
IC50 [3]: 5.66 to 100 µg/mL (≈ 18.1 to 320 µM)

Structure (SMILES): Cc1ccc2c(c1)/C(=N/O)C(=O)N2CCOCCOc1ccc2c(C)cc(=O)oc2c1
IC50 [4]: 10.3 to 50 µM
IC50 [5]: 10.3 to 50 µM
IC50 [6]: 10.3 to 50 µM
IC50 [7]: 10.3 to 50 µM
IC50 [8]: 10.3 to 50 µM
IC50 [9]: 10.3 to 50 µM
IC50 [10]: 10.3 to 50 µM

Structure (SMILES): Cc1cc(=O)oc2cc(OCCOCCN3C(=O)C(=O)c4cc(Cl)ccc43)ccc12
IC50 [4]: 10.3 to 50 µM
IC50 [5]: 10.3 to 50 µM
IC50 [6]: 10.3 to 50 µM
IC50 [7]: 10.3 to 50 µM
IC50 [8]: 10.3 to 50 µM
IC50 [9]: 10.3 to 50 µM
IC50 [10]: 10.3 to 50 µM

IC50 [1]: 0.0091 to 0.569 µM
Structure (SMILES): CCOC(=O)c1sc(N/N=C(\C)c2cc3cc(Br)ccc3oc2=O)nc1C

IC50 [13]: 0.16 to 1.12 µg/mL (≈ 0.324 to 2.27 µM)
IC50 [14]: 0.16 to 1.12 µg/mL (≈ 0.324 to 2.27 µM)
IC50 [15]: 0.16 to 1.12 µg/mL (≈ 0.324 to 2.27 µM)
IC50 [16]: 0.16 to 1.12 µg/mL (≈ 0.324 to 2.27 µM)
Structure (SMILES): Cc1nn(-c2ccccc2)c(=O)n1-n1c(-c2cc3ccccc3oc2=O)cs/c1=N\c1ccccc1

Structure (SMILES): O=c1oc2ccccc2cc1-c1nnc2n1N=C(c1ccc(Cl)cc1)CS2
IC50 [11]: 1.01 to 5.72 µM
IC50 [12]: 1.01 to 5.72 µM

IC50 [13]: 0.16 to 1.12 µg/mL (≈ 0.303 to 2.12 µM)
IC50 [14]: 0.16 to 1.12 µg/mL (≈ 0.303 to 2.12 µM)
IC50 [15]: 0.16 to 1.12 µg/mL (≈ 0.303 to 2.12 µM)
IC50 [16]: 0.16 to 1.12 µg/mL (≈ 0.303 to 2.12 µM)
Structure (SMILES): Cc1nn(-c2ccccc2)c(=O)n1-n1c(-c2cc3ccccc3oc2=O)cs/c1=N\c1ccc(Cl)cc1

Structure (SMILES): CO/N=C1\C(=O)N(CCOCCOc2ccc3c(C)cc(=O)oc3c2)c2ccc(Cl)cc21
IC50 [4]: 10.3 to 50 µM
IC50 [5]: 10.3 to 50 µM
IC50 [6]: 10.3 to 50 µM
IC50 [7]: 10.3 to 50 µM
IC50 [8]: 10.3 to 50 µM
IC50 [9]: 10.3 to 50 µM
IC50 [10]: 10.3 to 50 µM

Structure (SMILES): O=c1oc2ccccc2cc1-c1nnc2n1N=C(c1ccc(Br)cc1)CS2
IC50 [11]: 1.01 to 5.72 µM
IC50 [12]: 1.01 to 5.72 µM

Structure (SMILES): O=C(c1cnc(Nc2ccc(F)cc2)s1)c1cc2ccccc2oc1=O
IC50 [2]: 5.66 to 100 µg/mL (≈ 15.4 to 273 µM)
IC50 [3]: 5.66 to 100 µg/mL (≈ 15.4 to 273 µM)

Structure (SMILES): Cc1ccc(C2=Nn3c(nnc3-c3cc4ccccc4oc3=O)SC2)cc1
IC50 [11]: 1.01 to 5.72 µM
IC50 [12]: 1.01 to 5.72 µM

Structure (SMILES): O=c1oc2ccccc2cc1-c1nnc2n1N=C(c1ccc(-c3ccccc3)cc1)CS2
IC50 [11]: 1.01 to 5.72 µM
IC50 [12]: 1.01 to 5.72 µM

Structure (SMILES): Cc1cc(=O)oc2cc(OCCOCCN3C(=O)/C(=N\O)c4cc(Cl)ccc43)ccc12
IC50 [4]: 10.3 to 50 µM
IC50 [5]: 10.3 to 50 µM
IC50 [6]: 10.3 to 50 µM
IC50 [7]: 10.3 to 50 µM
IC50 [8]: 10.3 to 50 µM
IC50 [9]: 10.3 to 50 µM
IC50 [10]: 10.3 to 50 µM

Structure (SMILES): O=c1oc2ccccc2cc1C1=Nn2c(nnc2-c2cc3ccccc3oc2=O)SC1
IC50 [11]: 1.01 to 5.72 µM
IC50 [12]: 1.01 to 5.72 µM
